In patent publication US11466008B2, “Co-crystals of neflamapimod (VX-745)” (EIP Pharma, LLC, priority 2017, dated 2022):
In brackets after ≈: the same amount, converted by molar mass.

Legend:
[1] = Dissolution study in water at ambient temperature (HPLC); assay type: physicochemical
Protocol: HPLC analyses were carried out on an Agilent 1100 series instrument equipped with a UV detector using the following materials and operating parameters:
Dissolution studies were carried out for VX-745 at ambient temperature using water, as described by the HPLC Analysis protocol described above.
Dissolution studies were carried out for the CC-6 at ambient temperature using water, as described by the HPLC Analysis protocol described above.
Dissolution studies were carried out for the CC-11 at ambient temperature using water, as described by the HPLC Analysis protocol described above.

[2] = Dissolution study in FeSSIF at ambient temperature (HPLC; XRPD of remaining solids); details: for Concentration: FeSSIF; for Concentration / ending solubility / peak solubility: ambient temperature; for ending solubility / peak solubility: medium: FeSSIF
Description: (§1) The first dissolution medium tested was fasted state simulated intestinal fluid (FaSSIF) at ambient temperature. […] The second dissolution medium tested was fed state simulated intestinal fluid (FeSSIF) at ambient temperature.
(§2) Upon the completion of each experiment, the remaining solid was recovered and analyzed by XRPD.
(§3) High-Performance Liquid Chromatography (HPLC) Analyses.

[3] = Dissolution study in FaSSIF at ambient temperature (HPLC; XRPD of remaining solids); details: for ending solubility / peak solubility: medium: FaSSIF; for ending solubility / peak solubility / Concentration: ambient temperature; for Concentration: FaSSIF, 3 hrs
Description: as §1, §2, §3

[4] = Estimated solubility of VX-745 in solvents (solvent aliquot addition, visual inspection); assay type: physicochemical; details: thermodynamic from solid
Protocol: Solubilities of VX-745 in several solvents were estimated. The experiments were carried out by adding test solvents in aliquots to weighed portions of solid. Whether dissolution had occurred was judged by visual inspection after addition of each solvent aliquot. Solubility numbers were calculated by dividing the total amount of solvent used to dissolve the sample by the weight of the sample. The actual solubilities may be greater than the numbers calculated because of the use of solvent aliquots that were too large or because of slow dissolution rates. […] The solubility number is expressed as “greater than or equal to” if dissolution occurred on addition of the first solvent aliquot.

[5] = FeSSIF (fed state simulated intestinal fluid), fessif, thermodynamic from solid
[6] = FaSSIF (fasted state simulated intestinal fluid), fassif, thermodynamic from solid

`O=C(O)CCCC(=O)O.O=c1ncn2nc(Sc3ccc(F)cc3F)ccc2c1-c1c(Cl)cccc1Cl` [CC-6] showed a Solubility ([1]; 2 mins) of 23.78 µg/mL, a Solubility ([1]; 5 mins) of 39.17 µg/mL and a Solubility ([1]; 10 mins) of 51.39 µg/mL. For the same molecule, the Solubility ([1]; 15 mins) was 67.49 µg/mL, the Solubility ([1]; 25 mins) was 68.93 µg/mL and the Solubility ([1]; 40 mins) was 65.28 µg/mL. It also gave a Solubility ([1]; 1 hr) of 59.85 µg/mL, a Solubility ([1]; 2 hrs) of 54.11 µg/mL and a Solubility ([1]; 3 hrs) of 50.75 µg/mL. It also gave a Solubility ([1]; 4 hrs) of 57.07 µg/mL, a Concentration ([2]; 3 mins) of 1280 ng/mL and an ending solubility [2] of 2.38 µg/mL. The peak solubility [2] was 1.87 µg/mL, the ending solubility [3] was 1.59 µg/mL and the peak solubility [3] was 3.75 µg/mL.
`O=c1ncn2nc(Sc3ccc(F)cc3F)ccc2c1-c1c(Cl)cccc1Cl.Oc1ccccc1` [CC-11] gave a Solubility ([1]; 2 mins) of 10.19 µg/mL, a Solubility ([1]; 5 mins) of 57.50 µg/mL and a Solubility ([1]; 10 mins) of 43.26 µg/mL. For the same molecule, the Solubility ([1]; 15 mins) was 36.28 µg/mL, the Solubility ([1]; 25 mins) was 35.33 µg/mL and the Solubility ([1]; 40 mins) was 21.33 µg/mL. The Solubility ([1]; 1 hr) was 15.09 µg/mL, the Solubility ([1]; 2 hrs) was 17.11 µg/mL and the Solubility ([1]; 3 hrs) was 12.30 µg/mL. For the same molecule, the Solubility ([1]; 4 hrs) was 13.98 µg/mL.
For `O=c1ncn2nc(Sc3ccc(F)cc3F)ccc2c1-c1c(Cl)cccc1Cl.[Cl][Zn][Cl]` [CC-18], the Concentration ([2]; 2 mins (Table 17)) was 88500 ng/mL, the Concentration ([2]; 5 mins (Table 17)) was 68530 ng/mL and the Concentration ([2]; 10 mins (Table 17)) was 56840 ng/mL. The Concentration ([2]; 15 mins (Table 17)) was 59400 ng/mL, the Concentration ([2]; 25 mins (Table 17)) was 47550 ng/mL and the Concentration ([2]; 40 mins (Table 17)) was 50990 ng/mL. It also gave a Concentration ([2]; 1 hr (Table 17)) of 47830 ng/mL, a Concentration ([2]; 2 hrs (Table 17)) of 50170 ng/mL and a Concentration ([2]; 3 hrs (Table 17)) of 47340 ng/mL. For the same molecule, the Concentration ([2]; 4 hrs (Table 17)) was 49240 ng/mL, the Concentration ([2]; 24 hrs (Table 17)) was 34180 ng/mL and the ending solubility [2] was 34.18 µg/mL. For the same molecule, the peak solubility [2] was 88.50 µg/mL, the Concentration [3] was 23630 ng/mL and the ending solubility [3] was 22.57 µg/mL. For the same molecule, the peak solubility [3] was 34.49 µg/mL.
With `O=c1ncn2nc(Sc3ccc(F)cc3F)ccc2c1-c1c(Cl)cccc1Cl` [VX-745, 5-(2,6-dichlorophenyl)-2-(2,4-difluorophenylthio)-6H-pyrimido[1,6-b]pyridazin-6-one] the solubility at 2 min ([1]; thermodynamic from solid, 2 mins) was 11.3 µg/mL (≈ 25.9 µM), the solubility at 5 min ([1]; thermodynamic from solid, 5 mins) was 15.7 µg/mL (≈ 35.9 µM) and the solubility at 10 min ([1]; thermodynamic from solid, 10 mins) was 14.9 µg/mL (≈ 34.2 µM). It also gave a solubility at 15 min ([1]; thermodynamic from solid, 15 mins) of 17.8 µg/mL (≈ 40.8 µM), a solubility at 25 min ([1]; thermodynamic from solid, 25 mins) of 15.5 µg/mL (≈ 35.6 µM) and a solubility at 40 min ([1]; thermodynamic from solid, 40 mins) of 10.7 µg/mL (≈ 24.5 µM). For the same molecule, the solubility at 1 h ([1]; thermodynamic from solid, 1 hr) was 6.59 µg/mL (≈ 15.1 µM), the solubility at 2 h ([1]; thermodynamic from solid, 2 hrs) was 5.67 µg/mL (≈ 13 µM) and the solubility at 3 h ([1]; thermodynamic from solid, 3 hrs) was 6.32 µg/mL (≈ 14.5 µM). It also gave a solubility at 4 h ([1]; thermodynamic from solid, 4 hrs) of 11.3 µg/mL (≈ 25.9 µM), a solubility at 3 h [2, 5] of 21.4 µg/mL (≈ 48.9 µM) and a solubility at 24 h [2, 5] of 14 µg/mL (≈ 32.1 µM). The Concentration ([2]; 3 hrs) was 21350 ng/mL, the solubility at 5 min [3, 6] was 17.8 µg/mL (≈ 40.8 µM) and the solubility at 24 h [3, 6] was 9.07 µg/mL (≈ 20.8 µM). For the same molecule, the Concentration [3] was 5810 ng/mL, the Solubility ([4]; organic solvent or mixture, solvent acetone) was 7000 µg/mL (≈ 16000 µM) and the Solubility ([4]; organic solvent or mixture, solvent acetonitrile) was 9000 µg/mL (≈ 20600 µM). The Solubility ([4]; organic solvent or mixture, solvent ethanol) was 2000 µg/mL (≈ 4580 µM), the Solubility ([4]; organic solvent or mixture, solvent ethyl acetate) was less than 1000 µg/mL and the Solubility ([4]; organic solvent or mixture, solvent isopropyl alcohol) was 1000 µg/mL (≈ 2290 µM). It also gave a Solubility ([4]; organic solvent or mixture, solvent methanol) of 10000 µg/mL (≈ 22900 µM), a Solubility ([4]; organic solvent or mixture, solvent tetrahydrofuran (THF)) of 4000 µg/mL (≈ 9170 µM) and a Solubility ([4]; solvent water) of less than 1000 µg/mL.
